US11130959B2, “Methods and compositions for combinations of mutations associated with herbicide resistance/tolerance in rice” (priority 2016, dated 2021)

What was measured:
[1] = tested on: rice line ML0831266-03093 (HPPDi + HPPDni); assay: Mesotrione tolerance trials
Procedure: FIG. 4 is a graphical representation of results of a trait tolerance trial wherein mesotrione was applied at the indicated rates about 34 days after planting.
In particular, a rate response experiment was conducted in which two different rates of mesotrione were applied pre-emergence, plus an additional foliar application was also applied.
Further validation of the trait involved testing the mutant line ML0831266-03093 in the presence of common rice weeds.
The mutant line is planted in rows or alternatively whole plots are planted and rows of the unmutated line (P1003) and other types of rice or whole plots are planted. Mesotrione is applied pre-emergence or alternatively it is applied post-emergence at the three to four leaf stage of the rice plants. Various rates of mesotrione are applied pre-emergence, pre-emergence followed by post-emergent, or post-emergent with a single or sequential application. Post-emergent applications are applied at the 3-4 leaf stage of the rice.

[2] = tested on: rice line P1003 (unmutated parent); assay: Mesotrione tolerance trials; format: in vivo, Oryza sativa
[3] = tested on: rice line ML0831265-01493; assay: Mesotrione tolerance trials; format: in vivo, Oryza sativa
[4] = tested on: rice line R0146 (unmutated); assay: Mesotrione tolerance trials; format: in vivo, Oryza sativa; conditions: low rates (105 gm ai/ha)
[5] = tested on: F2 individuals from cross ML0831266-03093 x ML0831265-01493; assay: Herbicide bioassays on F2 individuals (Table 3); format: in vivo, Oryza sativa
Text: In the population sprayed with 105 gm ai/ha a single QTL found on chromosome 2 with strong linkage to SNP marker BG-id2004662 acted in a mostly dominate manner. This marker and QTL identifies the inherent tolerance in line P1003. The marker is useful for breeding and selection of new mesotrione tolerant lines. The discovery of this QTL facilitates commercial development of new rice varieties with a new method for controlling weeds through the use of mesotrione herbicide. The finding of the linked marker BG-id2004662 is a novel finding and selection strategy for breeding and selecting the tolerance to mesotrione and other herbicides derived from line P1003.
Combining the HPPD tolerance with the ACCase tolerance into a single rice line was initiated with the HPPD tolerance mapping project by crossing the HPPD tolerant line ML0831266-03093 to the ACCase tolerant line ML0831265-01493. In mapping the F2 population plants were selected for HPPD tolerance by applying mesotrione first at a low rate (105 gmai/ha) followed by a high rate (630 gmai/ha). In this process molecular markers were also developed allowing future selection of HPPD tolerance by either markers or herbicide tolerance screening or both.
In one example a rate of 105 gm ai/ha is applied followed three weeks later by a second application of 630 gm ai/ha. In another example a rate of 420 gm ai/ha is applied in a single application. Yet another example entails applying the herbicide at a rate of 630 gm ai/ha. Herbicide applications are done at the three to four leaf stage of seedling growth. The ideal situation is to have also planted near or within the F2 population a set of plants from the original mutant mesotrione donor line ML0831266-03093, a row of plants of the wild-type of the mutation line, P1003, and a row of the line involved as the other parent ML0831265-01493. These control lines will allow easy differentiation for inheritance of the tolerance provided by the ML0831266-03093 mutant line through comparison of the response in the F2 plants to these control lines. Only plants that live and are relatively healthy will have inherited and be homozygous for the tolerance level provided by the ML0831266-03093 mutant line.

[6] = tested on: common weeds in rice (grass weeds such as barnyard grass); assay: Weed control in rice crops; format: in vivo
Procedure: FIGS. 5A and 5B are photographs of results of trait tolerance trials; weed control by mesotrione herbicide applied pre-planting was evaluated; the plots were planted with a hybrid of the HPPD tolerant line ML0831266-03093; just before planting, the plot on the right FIG. 5B received an application of mesotrione at 210 gmai/ha; the plot on the left FIG. 5A had no herbicide applied either pre-plant or post-emergence; pictures were taken four weeks after planting showing differences in weed appearance.
While testing the tolerant lines, the parent lines were also tested to serve as controls and as an indication of commercial potential as a red rice/wild weedy rice control strategy.
Rice is tolerant to certain ACCase inhibitor herbicides, for example cyhalofop is registered for use in rice. However other ACCase herbicides kill or severely injure rice to varying degrees. […] The applied rates of both types of herbicides giving the weed control are well within the tolerance level of the respective ACCase and HPPD tolerant lines including the combined lines carrying tolerance to both HPPD and ACCase herbicides.

[7] = tested on: rice line PL1214418M2-73009; assay: Trial of recovery of HPPD tolerance in the combined line; format: in vivo, Oryza sativa; conditions: 0.5×, 1×, 2×, 4× of 210 gmai/ha and sequential 1× and 2×
Procedure: Two trials were conducted to measure recovery of tolerance to both ACCase and HPPD herbicides in the new line PL1214418M2-73009. Recovery of tolerance in the line combining the two traits will illustrate that the traits are heritable and can be used to produce new varieties and hybrids carrying herbicide resistance. These trials are important as often times it is difficult to recover complex QTLs for quantitative traits or in some cases a traits response is dependent upon the genetic background. In the first trail the lines resistance to mesotrione (HPPD herbicide) was evaluated by planting line PL1214418M2-73009, the HPPD resistant line ML0831266-03093 and wild-type rice line P1003 and R0146 in plots (5 feet×10 feet). Mesotrione was applied at 0.5×, 1×, 2×, and 4× multiples of the labeled application rate (210 gmai/ha). Two additional treatments were included with a 1× and 2× rate followed by a second application 14 days afterward with the same rates.

[8] = tested on: rice line PL1214418M2-73001 (HPPD mutation only); assay: Contribution of single HPPD tolerance genes, field rows sprayed at 4 leaf stage; format: in vivo, Oryza sativa; conditions: 0.5×-4× of 210 gmai/ha, 4 weeks after application
Text: (§1) During the breeding process to develop new lines (PL1214418M2-80048 and PL1214418M2-73009) with resistance/tolerance to HPPD and ACCase herbicides, two other lines were also investigated to determine the contribution of the HPPD tolerance mutation and the HPPD tolerance native gene. The line PL1214418M2-73001 carries ACCase tolerance and only the HPPD tolerance, whereas […] PL1214418M2-73013 carries ACCase tolerance and only the HPPD native tolerance gene. These selections allow the estimation of the tolerance effect of each of the two genes required for tolerance to HPPD herbicides. The tolerance effect of each gene was measured by growing the lines in single rows including the newly developed line PL1214418M2-73009 that carries both the HPPD tolerance from the mutation and the non-induced tolerance, the HPPD tolerant line ML0831266-0309, and the non-induced parent line P1003. The field plots were sprayed at the 4 leaf stage with the HPPD herbicide mesotrione at 0.5×, 1×, 2×, and 4× multiples of the labeled application rate of 210 gmai/ha.

[9] = tested on: rice line PL1214418M2-73013 (HPPD native tolerance gene only); assay: as above; format: in vivo, Oryza sativa; conditions: 0.5×-4× of 210 gmai/ha, 4 weeks after application
Text: as §1

[10] = 105 gai/ha followed by second application of 630 gai/ha
[11] = single application at 105 gai/ha
[12] = single application at 420 gai/ha

CS(=O)(=O)c1ccc(C(=O)C2C(=O)CCCC2=O)c([N+](=O)[O-])c1 [mesotrione]
rate over which even lines with genetic resistance may be injured ([1]; FIG. 4 trial, 4 weeks after application): over 420 gmai/ha | tolerance of the crop in the presence of common rice weeds ([1]; applied rates): completely tolerant | survival ([1]; higher rates): survives | survival ([1]; low rates (105 gm ai/ha)): survive | survival ([2]; higher rates): killed or severally injured | survival ([2]; low rates (105 gm ai/ha)): survive | sensitivity ([3]; in vivo): highly sensitive | survival ([3]; low rates (105 gm ai/ha)): killed | survival [4]: killed | Observed number of Susceptible plants [5, 10]: 67 | Observed number of Tolerant plants [5, 10]: 28 | Observed number of Susceptible plants [5, 11]: 23 | Observed number of Tolerant plants [5, 11]: 64 | Observed number of Susceptible plants [5, 12]: 52 | Observed number of Tolerant plants [5, 12]: 26 | control of common weeds in rice ([6]; alone, especially pre-plant or at 2× the labeled rate of 210 gmai/ha): Control of common weeds in rice was also achieved | control of prevalent weed population ([6]; plots with line ML0831266-03093): well controlled | response compared with original trait line ML0831266-03093 [7]: same response | tolerance level between P1003 and ML0831266-0309 [8]: intermediate tolerance | tolerance level [9]: tolerance levels similar to the parent line P1003
